Experimental data reported in US4221800A, “Cycloalkenochromone” (Miles Laboratories, Inc., priority 1977, dated 1980).

Assays:
mast cells = test: inhibition of mast cell degranulation (spasmogen release) induced by phospholipase A; type: cell-based, rat; settings: for Relative Potency (in relation to disodium cromoglycate): IC20 relative to disodium cromoglycate, rat mast cells; for IC20: Mast cell, rat peritoneal mast cells, 37° C., ten minutes, read-out: IC20 (inhibition of mast cell degranulation by 20%)
Protocol: The anti-allergic activity was determined by measuring the inhibition of allergic release of spasmogens from mast cells, using the method of Taylor et al., as described in Int. Arch. Allergy, 46, 104(1974).
The inhibition of spasmogen release from mast cells involved obtaining pools of mast cells from normal rats. For each experiment involving pools of mast cells, 10 or more rats were killed by decapitation. The peritoneal fluid from the animals was pooled and the pool dispensed into small polyethylene tubes […] containing 25 μl of a degranulating agent phospholipase A (PL-A), and 25 μl of the drug to be tested. Each treatment was repeated in at least four tubes. All the tubes were incubated at 37° C. for ten minutes. The mast cells were fixed and stained by addition of 50 μl/tube of 2.5% toluidine blue made up in 25% acetic acid. The proportion of mast cells undergoing degranulation was assessed by counting under the microscope. At least 25 mast cells were counted from each tube. The percentage inhibition of degranulation resulting from each treatment was calculated using the formula 100[1-(x-z)/(y-z)], where `x` represents the mean percentage of cells undergoing degranulation in the tubes treated with PL-A and drug, `y` represents the mean percentage of cells undergoing degranulation in the tubes treated with PL-A only, and "z" represents the mean percentage of cells undergoing degranulation in the PL-A-negative tubes.
[See Nature, Vo. 223, 197 (1969)].

[1] = system: allergen-induced bronchoconstriction; settings: asthmatics; reference compound; cited from earlier work
[2] = system: allergic release of spasmogens in immediate hypersensitivity reactions; settings: immediate hypersensitivity reactions in several animals; Nature 223, 197 (1969); cited from earlier work

## O=C(O)c1ccc2oc3c(c(=O)c2c1)CCCC3 [Example 1, 6-Carboxy-2,3-cyclohexenochromone]
Mast cells
  Relative Potency (in relation to disodium cromoglycate): 3.1
  IC20: 2.1 µM

## O=c1c2c(oc3ccc(-c4nn[nH]n4)cc13)CCCC2 [Example 2, 6-(5-(1H)-tetrazolyl)-2,3-cyclohexenochromone]
Mast cells
  Relative Potency (in relation to disodium cromoglycate): 3.8
  IC20: 1.7 µM

## CC1CCc2oc3ccc(C(=O)O)cc3c(=O)c2C1 (centres unmarked) [Example 3, 6-Carboxy-2,3-(4'-methylcyclohexeno)chromone]
Mast cells
  Relative Potency (in relation to disodium cromoglycate): 1.0
  IC20: 6.5 µM

## CC1CCc2oc3ccc(-c4nn[nH]n4)cc3c(=O)c2C1 (centres unmarked) [Example 4, 6-(5-(1H)-tetrazolyl)-2,3-(4'-methylcyclohexeno)chromone]
Mast cells
  Relative Potency (in relation to disodium cromoglycate): 1.4
  IC20: 4.5 µM

## CCC1CCc2oc3ccc(C(=O)O)cc3c(=O)c2C1 (centres unmarked) [Example 5, Sodium-6-carboxy-2,3-(4'-ethylcyclohexeno)chromone]
Mast cells
  Relative Potency (in relation to disodium cromoglycate): 11.2
  IC20: 0.58 µM

## CCC1CCc2oc3ccc(-c4nn[nH]n4)cc3c(=O)c2C1 (centres unmarked) [Example 6, Sodium 6-(5-(1H)-tetrazolyl)-2,3-(4'-ethylcyclohexeno)chromone]
Mast cells
  Relative Potency (in relation to disodium cromoglycate): 6.5
  IC20: 1 µM

## O=C(O)c1ccc2oc3c(c(=O)c2c1)CC(C(=O)O)CC3 (centres unmarked) [Example 7, 6-Carboxy-2,3-(4'-carboxycyclohexeno)chromone]
Mast cells
  Relative Potency (in relation to disodium cromoglycate): 1.0
  IC20: 6.5 µM

## CCOC(=O)C1CCc2oc3ccc(-c4nn[nH]n4)cc3c(=O)c2C1 (centres unmarked) [Example 8, 6-(5-(1H)-tetrazolyl)-2,3-(4'-ethoxycarbonylcyclohexeno)chromone]
Mast cells
  Relative Potency (in relation to disodium cromoglycate): 1.6
  IC20: 4.2 µM

## O=c1c2c(oc3ccc(-c4nn[nH]n4)cc13)CCCCCC2 [Example 13, 6-(5-(1H)-tetrazolyl)-2,3-cyclooctenochromone]
Mast cells
  Relative Potency (in relation to disodium cromoglycate): 5.0
  IC20: 1.3 µM

## O=C(O)c1ccc2oc3c(c(=O)c2c1)CC(OCc1ccccc1)CC3 (centres unmarked) [Example 15, 6-Carboxy-2,3-(4'-benzyloxycyclohexeno)chromone]
Mast cells
  Relative Potency (in relation to disodium cromoglycate): 1.5
  IC20: 4.3 µM

## CSc1ccc2oc3c(c(=O)c2c1)CC(C(=O)O)CC3 (centres unmarked) [Example 18, 6-Methylthio-2,3-(4'-carboxycyclohexeno)chromone]
Mast cells
  Relative Potency (in relation to disodium cromoglycate): 5.0
  IC20: 1.3 µM

## CS(=O)(=O)c1ccc2oc3c(c(=O)c2c1)CC(C(=O)O)CC3 (centres unmarked) [Example 20, 6-Methylsulfonyl-2,3-(4'-carboxycyclohexeno)chromone]
Mast cells
  Relative Potency (in relation to disodium cromoglycate): 3.4
  IC20: 1.9 µM

## COC1CCc2oc3ccc(C(=O)O)cc3c(=O)c2C1 (centres unmarked) [Example 21, 6-Carboxy-2,3-(4'-methoxycyclohexeno)chromone]
Mast cells
  Relative Potency (in relation to disodium cromoglycate): 3.6
  IC20: 1.8 µM

## O=C(O)c1ccc2c(=O)c3c(oc2c1)CCCC3 [Example 24, 7-Carboxy-2,3-cyclohexenochromone]
Mast cells
  Relative Potency (in relation to disodium cromoglycate): 3.1
  IC20: 2.1 µM

## O=c1c2c(oc3cc(-c4nn[nH]n4)ccc13)CCCC2 [Example 25, 7(5-(1H)-tetrazolyl)-2,3-cyclohexenochromone]
Mast cells
  Relative Potency (in relation to disodium cromoglycate): 7.2
  IC20: 0.9 µM

## CCC1CCc2oc3cc(C(=O)O)ccc3c(=O)c2C1 (centres unmarked) [Example 26, 7-Carboxy-2,3-(4'-ethylcyclohexeno)chromone]
Mast cells
  Relative Potency (in relation to disodium cromoglycate): > 13.0
  IC20: < 0.6 µM

## CCC1CCc2oc3cc(-c4nn[nH]n4)ccc3c(=O)c2C1 (centres unmarked) [Example 27, 7-(5-(1H)-tetrazolyl)-2,3-(4'-ethylcyclohexeno)chromone]
Mast cells
  Relative Potency (in relation to disodium cromoglycate): > 13.0
  IC20: < 0.6 µM

## CC1(c2ccccc2)CCc2oc3ccc(-c4nn[nH]n4)cc3c(=O)c2C1 (centres unmarked) [Example 31, 6-(5-(1H)-tetrazolyl)-2,3-(4'-methyl-4'-phenylcyclohexeno)chromone]
Mast cells
  Relative Potency (in relation to disodium cromoglycate): 4.3
  IC20: 1.5 µM

## CCC1CCC2=C(C1)C(=O)c1cc(C(=O)O)ccc1S2(=O)=O (centres unmarked) [Example 32, 6-Carboxy-2,3-(4'-ethylcyclohexeno)thiochromone-1,1-dioxide]
Mast cells
  Relative Potency (in relation to disodium cromoglycate): 10.8
  IC20: 0.6 µM

## CCC1CCc2sc3ccc(C(=O)O)cc3c(=O)c2C1 (centres unmarked) [Example 33, 6-Carboxy-2,3-(4'-ethylcyclohexeno)thiochromone]
Mast cells
  Relative Potency (in relation to disodium cromoglycate): 1.41
  IC20: 4.6 µM

## CCC1CCc2sc3ccc(-c4nn[nH]n4)cc3c(=O)c2C1 (centres unmarked) [Example 35, 6-(5-(1H)-tetrazolyl)-2,3-(4'-ethylcyclohexeno)thiochromone]
Mast cells
  Relative Potency (in relation to disodium cromoglycate): 18,1
  IC20: 0.36 µM

## O=C(O)c1cc(=O)c2c(OCC(O)COc3cccc4oc(C(=O)O)cc(=O)c34)cccc2o1 [disodium cromogylcate]
[1]
  inhibition of experimental allergen-induced bronchoconstriction (in words): effective inhibitor of experimental allergen-induced bronchoconstriction in asthmatics
[2]
  inhibition of allergic release of spasmogens (in words): specifically inhibit the allergic release of spasmogens in immediate hypersensitivity reactions in several animals
